From patent publication US5817669A, “Compounds, processes for the preparation thereof and anti-tumor agents” (Dainippon Pharmaceutical Co., Ltd., priority 1994, dated 1998)
Like-named read-outs stand apart in the source and are kept apart here.

Columns and labels:
[1] = test system: murine P388 lymphocytic leukemia cells; test: In vitro anti-tumor activity against murine P388 lymphocytic leukemia cells (MTT, 72 h); format: cell-based; settings: Mus musculus; murine P388 cells, 72 h, MTT; read-out: IC50 (50% proliferation inhibitory concentration)
How it was run: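 MTT assay, 72 h exposure; formazan dissolved in DMSO after centrifugation and supernatant removal. Absorbance read at 570 nm with 690 nm reference. IC50 (μg/ml) by least squares.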

[2] = test system: KB human nasopharynx cancer; test: In vitro anti-tumor activity against KB human nasopharynx cancer (MTT); format: cell-based; settings: KB, 72 h, MTT, read-out: IC50
How it was run: (§1)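 500–2,000 cells per well were pre-cultured 20 h at 37° C, 5% CO2, then exposed to test compound for 72 h. MTT (5 mg/ml) was added for 4 h, supernatant removed and formazan dissolved in DMSO.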

[3] = test system: HMV2 human melanoma; test: In vitro anti-tumor activity against HMV-2 human melanoma (MTT); format: cell-based; settings: HMV-2, 72 h, MTT, read-out: IC50
How it was run: as §1

[4] = test system: AZ521 human stomach cancer; test: In vitro anti-tumor activity against AZ-521 human stomach cancer (MTT); format: cell-based; settings: AZ-521, 72 h, MTT, read-out: IC50
How it was run: as §1

[5] = test system: MKN45 human stomach cancer; test: In vitro anti-tumor activity against MKN45 human stomach cancer (MTT); format: cell-based; settings: MKN-45, MKN45, 72 h, MTT, read-out: IC50
How it was run: as §1

[6] = test system: WiDr human colorectal cancer; test: In vitro anti-tumor activity against WiDr human colorectal cancer (MTT); format: cell-based; settings: 72 h, MTT, read-out: IC50
How it was run: as §1

[7] = test system: C33A human cervix cancer; test: In vitro anti-tumor activity against C-33A human cervix cancer (MTT); format: cell-based; settings: C-33A, 72 h, MTT, read-out: IC50
How it was run: as §1

[8] = test system: A427 human lung cancer; test: In vitro anti-tumor activity against A-427 human lung cancer (MTT); format: cell-based; settings: A-427, 72 h, MTT, read-out: IC50
How it was run: as §1

[9] = test system: murine P388 lymphocytic leukemia cells; test: Increases in life span of mice implanted with murine P388 lymphocytic leukemia cells; format: in vivo, SLC: BDF1 mice; settings: Mus musculus, P388, ip, 720 h, ip
[10] = test system: colon 26 murine tumor cells; test: Tumor growth inhibition effect on colon 26 murine tumor cells implanted mice; format: in vivo, SLC: CDF1 mice; settings: Mus musculus, Colon 26, 504 h; ip, 1.56 mg/kg once a day, days 1-9; day 21 or 22; read-out: Tumor growth inhibition rate IR (%)
How it was run: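 CDF1 female mice (7–9 weeks, 7 per group) implanted intracutaneously in the abdomen with 2% brei of colon 26 cells. Compound given ip once daily from day 1 to day 9. Tumor weight estimated from diameters on day 21 or 22; IR % = [1 − (treated MTW/control MTW)] × 100.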

[11] = Acute toxicity; settings: mouse, in vivo; Intraperitoneal administration (ip), mice, 14th day
Protocol: Solutions of test compounds in predetermined concentrations were administered (0.1 ml/10 g body weight) to female BALB/c CrSlc mice (5 to 10 animals per one group, 10 weeks old) respectively, and, thus, LD50 values were calculated from the mortalities of the mice on the 14th day after the administration.

[12] = physchem
[13] = NCI criterion, read-out: Evaluation
[14] = days 1 and 5, in solution, read-out: ILS (%) (in solution)
[15] = days 1 and 5, in suspension, read-out: ILS (%) (in suspension)

## CN[C@@H]1CN(c2ccc3c(=O)c(C(=O)O)cn(-c4nccs4)c3n2)C[C@H]1OC.Cl (relative stereo) [Compound 1-1, 1,4-dihydro-7-(trans-3-methoxy-4-methylamino-1-pyrrolidinyl)-4-oxo-1-(2-thiazolyl)-1,8-naphthyridine-3-carboxylic acid hydrochloride]
[1]
  IC50: 0.0107 µg/mL
[2]
  IC50: 0.11 µg/mL
[3]
  IC50: 0.131 µg/mL
[4]
  IC50: 0.0561 µg/mL
[5]
  IC50: 0.15 µg/mL
[6]
  IC50: 0.379 µg/mL
[7]
  IC50: 0.137 µg/mL
[8]
  IC50: 0.0871 µg/mL
[9]; [13]
  ILS at 0.78 mg/kg: 20 to 74%
  ILS at 1.56 mg/kg: 20 to 74%
  ILS at 3.13 mg/kg: > 75%
  ILS at 6.25 mg/kg: > 75%
  ILS at 12.5 mg/kg: > 75%
  ILS at 25 mg/kg: > 75%
  ILS at 50 mg/kg: > 75%
[9]; [14]
  ILS at 0.78 mg/kg: 50%
  ILS at 1.56 mg/kg: 63%
  ILS at 3.13 mg/kg: 100%
  ILS at 6.25 mg/kg: 125%
  ILS at 12.5 mg/kg: 150%
  ILS at 25 mg/kg: 200%
  ILS at 50 mg/kg: > 275%
[9]; [15]
  ILS at 3.13 mg/kg: 88%
  ILS at 12.5 mg/kg: 175%
[10]
  inhibition in vivo at 1.56 mg/kg: 86%
[11]
  LD50 at 336 h: 93.2 mg/kg
[12]; 0.1 m phosphate buffer, pH 7.2, aqueous buffer
  solubility: 20.1 mg/mL
[12]; water
  solubility: 2.9 mg/mL
